ChEMBL document CHEMBL1201862, “PubChem BioAssay data set” (2004)
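Exposure lasted 48 hours, with cells grown in 96-well plates and compounds tested at five concentrations. GI50 = concentration required for 50% inhibition of growth.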 Activity calls are given as the source filed them. Cut-off read from the data, not from the text of the source: active = GI50 up to about 1.1 µM and inactive = higher.

Legend:
Test in all cases: NCI tumour cell line growth inhibition, 48 h
A498 = test system: A498
A549 = test system: A549
COLO 205 = test system: COLO 205
HCT-15 = test system: HCT-15
HL-60 = test system: HL-60
HOP-62 = test system: HOP-62
HOP-92 = test system: HOP-92
IGROV-1 = test system: IGROV-1
K562 = test system: K562
M14 = test system: M14
NCI-H226 = test system: NCI-H226
OVCAR-3 = test system: OVCAR-3
OVCAR-8 = test system: OVCAR-8
SF-268 = test system: SF-268
SF-539 = test system: SF-539
SK-MEL-5 = test system: SK-MEL-5
SK-OV-3 = test system: SK-OV-3
SNB-75 = test system: SNB-75
TK-10 = test system: TK-10

| SMILES | GI50 (A498) | GI50 (A549) | GI50 (COLO 205) | GI50 (HCT-15) [µM] | GI50 (HL-60) | GI50 (HOP-62) | GI50 (HOP-92) | GI50 (IGROV-1) | GI50 (K562) | GI50 (M14) | GI50 (NCI-H226) | GI50 (OVCAR-3) | GI50 (OVCAR-8) | GI50 (SF-268) | GI50 (SF-539) | GI50 (SK-MEL-5) | GI50 (SK-OV-3) | GI50 (SNB-75) | GI50 (TK-10) |
| --- | --- | --- | --- | --- | --- | --- | --- | --- | --- | --- | --- | --- | --- | --- | --- | --- | --- | --- | --- |
| CCOC(=O)C1Oc2ccc([N+](=O)[O-])c3c2C1(O)CCC3 (centres undefined) | 56.2 µM (inactive) | > 100 µM (inactive) | > 100 µM (inactive) | > 100 | > 100 µM (inactive) | > 100 µM (inactive) | > 100 µM (inactive) | > 100 µM (inactive) | > 100 µM (inactive) | > 100 µM (inactive) | > 100 µM (inactive) | > 100 µM (inactive) | > 100 µM (inactive) | > 100 µM (inactive) | > 100 µM (inactive) | > 100 µM (inactive) | > 100 µM (inactive) | > 100 µM (inactive) | > 100 µM (inactive) |
| COC(=O)c1cc(Br)c(Br)n1C | > 100 µM (inactive) | > 100 µM (inactive) | > 100 µM (inactive) | – | > 100 µM (inactive) | > 100 µM (inactive) | > 100 µM (inactive) | > 100 µM (inactive) | > 100 µM (inactive) | > 100 µM (inactive) | > 100 µM (inactive) | > 100 µM (inactive) | > 100 µM (inactive) | > 100 µM (inactive) | > 100 µM (inactive) | > 100 µM (inactive) | > 100 µM (inactive) | > 100 µM (inactive) | > 100 µM (inactive) |
| CC(C)(C)OC(=O)NC(CO)c1cccc(OCc2ccccc2)c1 (centres undefined) | > 87.9 µM (inactive) | 42.8 µM (inactive) | 47.3 µM (inactive) | > 100 | 13.9 µM (inactive) | > 82.4 µM (inactive) | 22.1 µM (inactive) | > 100 µM (inactive) | 36 µM (inactive) | 41.9 µM (inactive) | > 100 µM (inactive) | > 100 µM (inactive) | > 100 µM (inactive) | > 100 µM (inactive) | > 100 µM (inactive) | 28.2 µM (inactive) | > 100 µM (inactive) | > 100 µM (inactive) | > 82.6 µM (inactive) |
| COC1=CC(=O)C2C(C1=O)C(c1ccc(Cl)cc1)[C@@H]2C (some centres undefined) | 58.9 µM (inactive) | 34 µM (inactive) | 35 µM (inactive) | 17.1 | 22.2 µM (inactive) | 39.1 µM (inactive) | 24.5 µM (inactive) | 55.3 µM (inactive) | 28.3 µM (inactive) | 25.7 µM (inactive) | 22.1 µM (inactive) | 34.6 µM (inactive) | 20.6 µM (inactive) | 33 µM (inactive) | 22.8 µM (inactive) | 19.5 µM (inactive) | > 100 µM (inactive) | 17.4 µM (inactive) | 38.7 µM (inactive) |
| Cc1nn2c(=O)n(-c3cccc(-n4nnc5c(-c6ccccc6)c(C)nn5c4=O)c3C)nnc2c1-c1ccccc1 | 83.6 µM (inactive) | 33.3 µM (inactive) | 17.5 µM (inactive) | 16.1 | 18.2 µM (inactive) | 97.7 µM (inactive) | 55.5 µM (inactive) | 22.4 µM (inactive) | 20.1 µM (inactive) | 15.2 µM (inactive) | 45.3 µM (inactive) | 6.95 µM (inactive) | 24.7 µM (inactive) | 46 µM (inactive) | 24.4 µM (inactive) | 16.6 µM (inactive) | > 100 µM (inactive) | 37.4 µM (inactive) | 47.9 µM (inactive) |
| COc1ccc([C@H]2CC(=O)N3CCCC3N2)cc1 (some centres undefined) | > 100 µM (inactive) | > 100 µM (inactive) | > 100 µM (inactive) | > 100 | > 100 µM (inactive) | > 100 µM (inactive) | > 100 µM (inactive) | > 100 µM (inactive) | > 100 µM (inactive) | > 100 µM (inactive) | > 100 µM (inactive) | – | > 100 µM (inactive) | > 100 µM (inactive) | > 100 µM (inactive) | > 100 µM (inactive) | > 100 µM (inactive) | > 100 µM (inactive) | > 100 µM (inactive) |
| CC1CCC(O)C(C(O)CC2CC(=O)N(C)C(=O)C2)C1 (centres undefined) | > 100 µM (inactive) | > 100 µM (inactive) | > 100 µM (inactive) | – | > 100 µM (inactive) | > 100 µM (inactive) | > 100 µM (inactive) | > 100 µM (inactive) | > 100 µM (inactive) | > 100 µM (inactive) | > 100 µM (inactive) | > 100 µM (inactive) | > 100 µM (inactive) | > 100 µM (inactive) | > 100 µM (inactive) | – | > 100 µM (inactive) | > 100 µM (inactive) | > 100 µM (inactive) |
